From ChEMBL document CHEMBL4825722, “Discovery of Potent Selective Nonzinc Binding Autotaxin Inhibitor BIO-32546” (ACS Med Chem Lett, 2021)

How the values were obtained:
[1] = Drug concentration in Sprague-Dawley rat at 3 mg/kg, po after 6 hrs by LC-MS/MS analysis; assay type: ADME, organism-based; settings: in vivo, read-out: Drug uptake
Rattus norvegicus [2] = assay: Effect on Sprague-Dawley rat CFA inflammatory […] model assessed as reduction in 20:4 LPA level at 3 mg/kg, po after 6 hrs by LC-MS/MS analysis; assay type: functional; parameters: scale not given: the % may be the effect or the level left
[3] = Oral bioavailability in rat at 10 mg/kg; assay type: ADME, organism-based; settings: in vivo
[4] = target: T1, Lysophosphatidic acid receptor 3 (Homo sapiens, UniProt Q9UBY5); assay: Inhibition of LPA3 (unknown origin)
T1 sequence (Q9UBY5 whole entry): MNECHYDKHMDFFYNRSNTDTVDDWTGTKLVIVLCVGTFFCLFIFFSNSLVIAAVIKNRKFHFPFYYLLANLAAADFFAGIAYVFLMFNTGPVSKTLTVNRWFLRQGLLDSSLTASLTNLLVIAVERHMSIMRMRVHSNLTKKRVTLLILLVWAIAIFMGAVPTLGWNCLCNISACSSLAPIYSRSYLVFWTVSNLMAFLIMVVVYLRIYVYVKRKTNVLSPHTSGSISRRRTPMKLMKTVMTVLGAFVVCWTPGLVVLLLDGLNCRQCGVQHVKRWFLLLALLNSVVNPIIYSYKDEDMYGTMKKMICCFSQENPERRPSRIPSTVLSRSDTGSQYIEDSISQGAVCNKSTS

[5] = target: Sphingosine 1-phosphate receptor 2 (Homo sapiens, UniProt O95136); assay: Inhibition of S1P2 (unknown origin)
[6] = Volume of distribution at steady state in dog at 0.2 mg/kg, iv; assay type: ADME, organism-based, Canis lupus familiaris; settings: in vivo, read-out: Vdss
[7] = target: Lysophosphatidic acid receptor 1 (Homo sapiens, UniProt Q92633); assay: Inhibition of LPA1 (unknown origin)
[8] = Tmax in C57BL/6 mouse plasma at 10 mg/kg, po; assay type: ADME, organism-based
[9] = Clearance in dog at 0.2 mg/kg, iv; assay type: ADME, organism-based, Canis lupus familiaris; settings: in vivo
[10] = target: Sphingosine 1-phosphate receptor 1 (Homo sapiens, UniProt P21453); assay: Inhibition of S1P1 (unknown origin)
[11] = Oral bioavailability in C57BL/6 mouse at 10 mg/kg; assay type: ADME, organism-based; settings: in vivo
[12] = Oral bioavailability in dog at 1.0 mg/kg; assay type: ADME, organism-based, Canis lupus familiaris; settings: in vivo
[13] = Tmax in C57BL/6 mouse brain at 2.32 mg/kg, iv; assay type: ADME, organism-based
hERG (KCNH2) = hERG (KCNH2) (Homo sapiens, UniProt Q12809); assay: Inhibition of human ERG at 1 uM by automated patch-clamp assay relative to control
[14] = AUC (0 to 24 hrs) in C57BL/6 mouse brain at 10 mg/kg, po; assay type: ADME, organism-based; parameters: time < 24 hr, route oral, dose 10 mg/kg
[15] = Drug concentration in rat brain at 10 mg/kg, po after 4 hrs; assay type: ADME, organism-based; settings: read-out: Ct
Cytochrome P450 1A2 = target: T2, Cytochrome P450 1A2 (Homo sapiens, UniProt P05177); assay: Inhibition of CYP1A2 in human liver microsomes incubated for 15 mins in presence of NADPH by LC-MS/MS analysis; assay type: ADME
T2 sequence (P05177 whole entry): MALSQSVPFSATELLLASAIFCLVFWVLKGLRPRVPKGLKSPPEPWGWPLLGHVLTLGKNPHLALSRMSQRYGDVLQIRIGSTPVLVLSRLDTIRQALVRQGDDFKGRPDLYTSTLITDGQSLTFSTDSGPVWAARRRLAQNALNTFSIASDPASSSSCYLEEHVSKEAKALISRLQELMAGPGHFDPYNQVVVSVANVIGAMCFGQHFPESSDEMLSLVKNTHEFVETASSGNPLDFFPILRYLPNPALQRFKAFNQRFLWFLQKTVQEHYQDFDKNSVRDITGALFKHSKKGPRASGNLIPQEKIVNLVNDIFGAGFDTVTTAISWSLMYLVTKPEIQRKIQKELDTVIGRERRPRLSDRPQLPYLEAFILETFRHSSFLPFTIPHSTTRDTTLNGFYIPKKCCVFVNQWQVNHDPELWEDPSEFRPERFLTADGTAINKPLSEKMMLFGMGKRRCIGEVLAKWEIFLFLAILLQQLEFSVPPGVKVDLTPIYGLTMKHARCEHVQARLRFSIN

Cytochrome P450 2D6 = Cytochrome P450 2D6 (Homo sapiens, UniProt P10635); assay: Inhibition of CYP2D6 in human liver microsomes incubated for 15 mins in presence of NADPH by LC-MS/MS analysis; assay type: ADME
[16] = AUC (0 to 24 hrs) in dog at 0.2 mg/kg, iv; assay type: ADME, organism-based, Canis lupus familiaris; parameters: time < 24 hr, route intravenous, dose 0.2 mg/kg; settings: in vivo
Rattus norvegicus [17] = assay: Effect on Sprague-Dawley rat CFA inflammatory […] model assessed as reduction in 20:4 LPA level at 0.3 mg/kg after 6 hrs by LC-MS/MS analysis; assay type: functional; parameters: scale not given: the % may be the effect or the level left
[18] = AUC (0 to 24 hrs) in cynomolgus monkey at 1.0 mg/kg, po; assay type: ADME, organism-based, Macaca fascicularis; parameters: time < 24 hr, route oral, dose 1 mg/kg; settings: in vivo
[19] = Tmax in C57BL/6 mouse brain at 10 mg/kg, po; assay type: ADME, organism-based
Rattus norvegicus [20] = assay: Effect on po dosed Sprague-Dawley rat CFA inflammatory pain model assessed as reduction in LPA level administered day 2 post CFA challenge and measured after 6 hrs by LC-MS/MS analysis; settings: dose 0.1-10 mg/kg
[21] = Clearance in C57BL/6 mouse plasma at 2.32 mg/kg; assay type: ADME, organism-based
[22] = AUC (0 to 24 hrs) in dog at 1.0 mg/kg, po; assay type: ADME, organism-based, Canis lupus familiaris; parameters: time < 24 hr, route oral, dose 1 mg/kg; settings: in vivo
[23] = Protein binding in C57BL/6 mouse brain assessed as unbound fraction; assay type: ADME, tissue-based
[24] = Protein binding in rat plasma assessed as unbound fraction; assay type: ADME, cell-free
Autotaxin = Autotaxin (Homo sapiens, UniProt Q13822); assay: Inhibition of human ATX assessed as reduction in LPA formation using FS-3 as substrate preincubated for 30 mins followed by substrate addition and measured after 2 hrs by FRET assay

Cytochrome P450 2D6, sequence (P10635 whole entry): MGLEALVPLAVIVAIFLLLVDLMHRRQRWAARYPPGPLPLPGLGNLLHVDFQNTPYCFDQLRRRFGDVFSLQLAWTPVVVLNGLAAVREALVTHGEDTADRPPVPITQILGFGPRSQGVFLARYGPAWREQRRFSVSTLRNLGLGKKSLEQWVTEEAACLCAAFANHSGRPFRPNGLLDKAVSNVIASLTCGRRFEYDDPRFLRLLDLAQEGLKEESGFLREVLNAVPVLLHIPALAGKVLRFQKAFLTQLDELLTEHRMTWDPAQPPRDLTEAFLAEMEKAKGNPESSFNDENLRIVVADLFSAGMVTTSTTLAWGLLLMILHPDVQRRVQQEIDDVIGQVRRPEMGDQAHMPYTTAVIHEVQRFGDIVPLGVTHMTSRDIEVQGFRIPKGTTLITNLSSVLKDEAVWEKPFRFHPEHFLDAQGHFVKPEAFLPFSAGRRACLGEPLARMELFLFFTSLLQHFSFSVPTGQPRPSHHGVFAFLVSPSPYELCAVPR
Sphingosine 1-phosphate receptor 1, sequence (P21453 whole entry): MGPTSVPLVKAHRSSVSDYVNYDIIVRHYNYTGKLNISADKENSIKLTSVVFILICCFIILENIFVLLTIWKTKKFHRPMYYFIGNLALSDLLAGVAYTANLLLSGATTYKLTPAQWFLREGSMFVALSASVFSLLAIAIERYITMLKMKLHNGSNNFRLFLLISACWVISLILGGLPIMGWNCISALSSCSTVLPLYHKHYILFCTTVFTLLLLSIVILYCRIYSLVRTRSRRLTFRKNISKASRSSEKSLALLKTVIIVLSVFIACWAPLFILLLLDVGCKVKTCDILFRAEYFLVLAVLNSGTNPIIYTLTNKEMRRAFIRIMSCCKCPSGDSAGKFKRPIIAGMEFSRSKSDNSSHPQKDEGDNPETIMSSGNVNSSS
hERG (KCNH2), sequence (Q12809 whole entry): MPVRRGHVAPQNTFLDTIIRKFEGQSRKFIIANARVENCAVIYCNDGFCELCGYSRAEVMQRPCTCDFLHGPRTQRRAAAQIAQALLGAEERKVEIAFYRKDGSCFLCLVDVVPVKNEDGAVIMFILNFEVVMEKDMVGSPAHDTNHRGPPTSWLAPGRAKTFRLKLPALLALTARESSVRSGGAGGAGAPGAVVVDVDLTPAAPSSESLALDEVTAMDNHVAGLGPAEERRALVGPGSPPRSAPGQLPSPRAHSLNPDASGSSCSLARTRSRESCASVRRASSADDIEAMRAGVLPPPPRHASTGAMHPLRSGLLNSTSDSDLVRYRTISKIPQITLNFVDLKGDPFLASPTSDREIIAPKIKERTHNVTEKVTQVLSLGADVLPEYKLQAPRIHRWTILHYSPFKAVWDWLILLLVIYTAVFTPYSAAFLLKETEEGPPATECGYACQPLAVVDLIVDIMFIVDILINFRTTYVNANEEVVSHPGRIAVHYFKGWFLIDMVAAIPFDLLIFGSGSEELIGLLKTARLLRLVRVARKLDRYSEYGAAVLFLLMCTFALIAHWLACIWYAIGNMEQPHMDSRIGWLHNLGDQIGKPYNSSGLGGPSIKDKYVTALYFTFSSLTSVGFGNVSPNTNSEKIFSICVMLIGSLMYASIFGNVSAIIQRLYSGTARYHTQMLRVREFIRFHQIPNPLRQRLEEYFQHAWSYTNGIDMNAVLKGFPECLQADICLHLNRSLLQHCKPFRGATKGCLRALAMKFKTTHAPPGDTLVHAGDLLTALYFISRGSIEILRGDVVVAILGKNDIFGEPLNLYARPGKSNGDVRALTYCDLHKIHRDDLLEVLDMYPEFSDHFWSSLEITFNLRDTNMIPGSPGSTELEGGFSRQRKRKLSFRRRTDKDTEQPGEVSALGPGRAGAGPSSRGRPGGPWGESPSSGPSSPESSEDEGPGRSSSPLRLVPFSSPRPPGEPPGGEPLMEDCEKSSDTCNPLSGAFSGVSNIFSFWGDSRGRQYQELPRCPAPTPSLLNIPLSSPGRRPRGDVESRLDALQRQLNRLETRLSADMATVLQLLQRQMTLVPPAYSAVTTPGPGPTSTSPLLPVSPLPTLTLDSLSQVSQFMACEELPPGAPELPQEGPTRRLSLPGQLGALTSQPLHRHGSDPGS
Sphingosine 1-phosphate receptor 2, sequence (O95136 whole entry): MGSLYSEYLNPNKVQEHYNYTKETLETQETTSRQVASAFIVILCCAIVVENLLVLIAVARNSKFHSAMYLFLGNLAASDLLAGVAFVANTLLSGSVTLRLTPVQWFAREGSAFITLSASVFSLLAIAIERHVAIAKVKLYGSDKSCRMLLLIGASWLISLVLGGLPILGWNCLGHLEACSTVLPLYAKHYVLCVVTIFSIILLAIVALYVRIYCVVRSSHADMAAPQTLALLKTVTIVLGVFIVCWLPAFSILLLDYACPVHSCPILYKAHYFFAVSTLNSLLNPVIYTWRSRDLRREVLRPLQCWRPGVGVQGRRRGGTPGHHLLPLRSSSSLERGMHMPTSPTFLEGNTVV
Lysophosphatidic acid receptor 1, sequence (Q92633 whole entry): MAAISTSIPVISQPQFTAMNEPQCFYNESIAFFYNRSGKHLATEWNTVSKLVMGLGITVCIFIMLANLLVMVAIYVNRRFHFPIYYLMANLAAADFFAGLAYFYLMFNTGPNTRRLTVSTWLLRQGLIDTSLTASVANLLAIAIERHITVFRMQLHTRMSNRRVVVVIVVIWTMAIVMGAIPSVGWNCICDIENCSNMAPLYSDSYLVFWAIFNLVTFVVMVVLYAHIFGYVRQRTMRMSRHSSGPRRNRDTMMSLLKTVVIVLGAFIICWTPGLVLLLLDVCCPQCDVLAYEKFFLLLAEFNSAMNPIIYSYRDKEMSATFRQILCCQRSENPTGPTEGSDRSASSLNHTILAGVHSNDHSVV

SMILES: C[C@@H](c1ccc2ccc(O[C@H]3CC[C@@H](C(F)(F)F)CC3)c(C(F)(F)F)c2c1)N1C2CCC1CC(C(=O)O)C2 (stereo partly drawn)
- concentration at 6 h [1]: 42 ng/mL
- Activity (Rattus norvegicus [2]): 61%
- bioavailability [3]: 66%
- IC50 [4]: > 10 µM
- IC50 [5]: > 10 µM
- Vd [6]: 2 L/kg
- IC50 [7]: > 10 µM
- Tmax [8]: 3 h
- clearance [9]: 1.7 mL/min/kg
- IC50 [10]: > 10 µM
- bioavailability [11]: 51%
- bioavailability [12]: 69%
- Tmax [13]: 3 h
- inhibition at 1 µM (hERG (KCNH2)): 1.4%
- AUC(0-t) at 24 h [14]: 8840 ng·h/mL
- concentration at 4 h [15]: 97 ng/mL
- IC50 (Cytochrome P450 1A2): > 10 µM
- IC50 (Cytochrome P450 2D6): > 10 µM
- AUC(0-t) at 24 h [16]: 1390 ng·h/mL
- Activity (Rattus norvegicus [17]): 92%
- AUC(0-t) at 24 h [18]: 614 ng·h/mL
- Tmax [19]: 7 h
- Activity (Rattus norvegicus [20]): Dose-Dependent Effect
- clearance [21]: 6.09 mL/min/kg
- AUC(0-t) at 24 h [22]: 6590 ng·h/mL
- Fu [23]: 0.096%
- Fu [24]: 0.45%
- IC50 (Autotaxin): 0.001 µM
